Values after ≈ are worked out from the molar mass of the structure shown.
How the values were obtained:
Assay type in all cases: cell-based, Clostridium difficile
C. difficile ATCC 43255 [1] = assay: Initial screening of antiparasitic drugs, broth microdilution MIC; details: Clostridioides difficile, ATCC43255; initial screening, C. difficile ATCC 43255; read-out: MIC
Protocol: C. difficile strains were grown anaerobically on brain heart infusion supplemented (BHIS) agar plates at 37° C. for 48 hours. Afterwards, a bacterial solution equivalent to 0.5 McFarland standard was prepared and diluted in (BHIS) broth to achieve a bacterial concentration of about 5×10^5 CFU/mL. Drugs were added and serially diluted along the plates. Plates were then, incubated anaerobically at 37° C. for 48 hours. MICs reported in Table (1) are the minimum concentrations of the drugs that could completely suppress the visual growth of bacteria.

C. difficile ATCC 1801 [2] = assay: MIC and MBC, broth microdilution; details: Clostridioides difficile, ATCC1801, C. difficile ATCC 1801
Protocol: (§1) Antibacterial activity of Diiodohydroxyquinoline against a wide panel of Clostridium difficile strains. […] MIC50 and MIC90 are the minimum concentration of each agent that inhibited growth of 50% and 90% of the tested isolates, respectively. The minimum bactericidal concentration (MBC) of these drugs was tested by plating 5 μL from wells with no growth onto BHIS agar plates. The MBC was categorized as the lowest concentration that reduced bacterial growth by 99.9% MIC50 and MIC90 are the minimum concentration of each agent that inhibited the growth of 50% and 90% of the tested isolates, respectively. The minimum bactericidal concentration (MBC) of these drugs was tested by plating 5 μL from wells with no growth onto BHIS agar plates. The MBC was categorized as the lowest concentration that reduced bacterial growth by 99.9% [29-31].

C. difficile ATCC 43255 [3] = assay: MIC and MBC, broth microdilution; details: Clostridioides difficile, ATCC43255, C. difficile ATCC 43255
Protocol: as §1

C. difficile I10 = assay: MIC and MBC, broth microdilution; details: Clostridioides difficile, C. difficile I10
Protocol: as §1

C. difficile I6 [4] = assay: MIC and MBC, broth microdilution; details: Clostridioides difficile, C. difficile I6
Protocol: as §1

C. difficile NR-49285 = assay: MIC and MBC, broth microdilution; details: Clostridioides difficile, NR49285, C. difficile NR-49285
Protocol: as §1

C. difficile NR-49288 = assay: MIC and MBC, broth microdilution; details: Clostridioides difficile, NR49288, C. difficile NR-49288
Protocol: as §1

C. difficile P20 = assay: MIC and MBC, broth microdilution; details: Clostridioides difficile, C. difficile P20
Protocol: as §1

C. difficile P6 = assay: MIC and MBC, broth microdilution; details: Clostridioides difficile, C. difficile P6
Protocol: as §1

[5] = tested on: C. difficile ATCC BAA-1870; assay: Time kill kinetics assay; details: C. difficile ATCC BAA-1870, 5×MIC, 37° C.
Protocol: (§2) Time kill kinetics assay. In order to examine the killing kinetics of DIHQ, a time kill kinetics assay was performed against Clostridium difficile ATCC BAA 1870 and C. difficile NR-49277 as described previously. […] Aliquots were collected from each treatment after 0, 4, 6, 8, 12, and 24 hours of incubation at 37° C. and subsequently serially diluted and plated for viable CFU/mL determination.

C. difficile NR-49277 [6] = assay: Time kill kinetics assay; details: C. difficile NR-49277, 5×MIC, 37° C.
Protocol: as §2

C. difficile ATCC 1801 [7] = assay: Checkerboard assay, DIHQ with metronidazole or vancomycin
Protocol: (§3) Interactions between diiodohydroxyquinoline and the anticlostridial drugs (metronidazole and vancomycin) against Clostridium difficile clinical isolates. […] The fractional inhibitory concentration index (ΣFIC) was calculated for each interaction. Interactions where the ΣFIC index was ≤0.5 were categorized as synergistic (SYN).

C. difficile ATCC 9689 = assay: as above
Protocol: as §3

C. difficile I6 [8] = assay: as above
Protocol: as §3

C. difficile P11 = assay: as above
Protocol: as §3

C. difficile P19 = assay: as above
Protocol: as §3

C. difficile P30 = assay: as above
Protocol: as §3

C. difficile ATCC 43255 [9] = assay: Toxin A and B production inhibition, ELISA; details: 8 hours
Protocol: (§4) To investigate DIHQs toxin production inhibitory activity, toxin A and toxin B levels were measured as described previously. […] An aliquot from each tube was diluted and plated on BHIS agar plates and incubated anaerobically at 37° C. for 24 hours to detect the bacterial count. The total concentration of C. difficile toxin A and B was measured in the supernatant of each tube using enzyme linked immunosorbent assay (ELISA) kit (tgc BIOMICS, Dunwoody, GA) following the manufacturer's instructions. The (OD450-OD620) values, corresponding to the toxin concentration, were measured for DIHQ and control drugs.

[10] = tested on: C. difficile ATCC BAA-1870; assay: Toxin A and B production inhibition, ELISA; details: 8 hours
Protocol: as §4

C. difficile NR-49277 [11] = assay: Toxin A and B production inhibition, ELISA; details: 8 hours
Protocol: as §4

[12] = DIHQ with metronidazole, C. difficile ATCC 1801
[13] = DIHQ with vancomycin, C. difficile ATCC 1801
[14] = DIHQ with metronidazole, C. difficile ATCC 9689
[15] = DIHQ with vancomycin, C. difficile ATCC 9689
[16] = DIHQ with metronidazole, C. difficile I6
[17] = DIHQ with vancomycin, C. difficile I6
[18] = DIHQ with metronidazole, C. difficile P11
[19] = DIHQ with vancomycin, C. difficile P11
[20] = DIHQ with metronidazole, C. difficile P19
[21] = DIHQ with vancomycin, C. difficile P19
[22] = DIHQ with metronidazole, C. difficile P30
[23] = DIHQ with vancomycin, C. difficile P30

With `Oc1c(I)cc(I)c2cccnc12` [DIHQ, 5,7-diiodoquinolin-8-ol] the MIC (C. difficile ATCC 43255 [1]) was 0.5 µg/mL (≈ 1.26 µM), the MBC (C. difficile ATCC 1801 [2]; read-out: MBC) was 4 µg/mL (≈ 10.1 µM) and the MIC (C. difficile ATCC 1801 [2]; read-out: MIC) was 2 µg/mL (≈ 5.04 µM). It also gave an MBC (C. difficile ATCC 43255 [3]; read-out: MBC) of 0.5 µg/mL (≈ 1.26 µM), an MIC (C. difficile ATCC 43255 [3]; read-out: MIC) of 0.5 µg/mL (≈ 1.26 µM) and an MBC (C. difficile I10; read-out: MBC) of 1 µg/mL (≈ 2.52 µM). It also gave an MIC (C. difficile I10; read-out: MIC) of 1 µg/mL (≈ 2.52 µM), an MBC (C. difficile I6 [4]; read-out: MBC) of 0.5 µg/mL (≈ 1.26 µM) and an MIC (C. difficile I6 [4]; read-out: MIC) of 0.5 µg/mL (≈ 1.26 µM). It also gave an MBC (C. difficile NR-49285; read-out: MBC) of 1 µg/mL (≈ 2.52 µM), an MIC (C. difficile NR-49285; read-out: MIC) of 1 µg/mL (≈ 2.52 µM) and an MBC (C. difficile NR-49288; read-out: MBC) of 0.5 µg/mL (≈ 1.26 µM). The MIC (C. difficile NR-49288; read-out: MIC) was 0.25 µg/mL (≈ 0.63 µM), the MBC (C. difficile P20; read-out: MBC) was 1 µg/mL (≈ 2.52 µM) and the MIC (C. difficile P20; read-out: MIC) was 1 µg/mL (≈ 2.52 µM). The MBC (C. difficile P6; read-out: MBC) was 0.5 µg/mL (≈ 1.26 µM), the MIC (C. difficile P6; read-out: MIC) was 0.5 µg/mL (≈ 1.26 µM) and the “time required to generate a 3-log10 reduction in CFU/mL” value [5] was “six”. The “time to complete eradication of the bacteria (below the detection limit, 100 CFU/mL)” value [5] was at most 24 h, the “time required to generate a 3-log10 reduction in CFU/mL” value (C. difficile NR-49277 [6]) was 4 hours and the “time to complete eradication of the bacteria (below the detection limit, 100 CFU/mL)” value (C. difficile NR-49277 [6]) was at most 6 h. The “MIC of DIHQ combined with metronidazole” value (C. difficile ATCC 1801 [7]; C. difficile ATCC 1801) was 1 µg/mL, the “MIC of DIHQ combined with vancomycin” value (C. difficile ATCC 1801 [7]; C. difficile ATCC 1801) was 2 µg/mL and the MIC alone (C. difficile ATCC 1801 [7]; C. difficile ATCC 1801, Table 4) was 4 µg/mL. The MIC (C. difficile ATCC 1801 [7]; Clostridioides difficile, ATCC1801, C. difficile ATCC 1801, Table 3, read-out: MIC alone) was 4 µg/mL, the Interpretation (C. difficile ATCC 1801 [7]; [12]) was “SYN (ΣFIC index ≤0.5 is considered synergistic (SYN))” and the “ΣFIC Index” value (C. difficile ATCC 1801 [7]; [12]) was 0.37. For the same compound, the Interpretation (C. difficile ATCC 1801 [7]; [13]) was “ADD (ΣFIC index >0.5 − 1.25 is considered additive (ADD))”, the “ΣFIC Index” value (C. difficile ATCC 1801 [7]; [13]) was 0.625 and the “MIC of DIHQ combined with metronidazole” value (C. difficile ATCC 9689; C. difficile ATCC 9689) was 0.06 µg/mL. For the same compound, the “MIC of DIHQ combined with vancomycin” value (C. difficile ATCC 9689; C. difficile ATCC 9689) was 0.06 µg/mL, the MIC alone (C. difficile ATCC 9689; C. difficile ATCC 9689, Table 4) was 0.125 µg/mL and the MIC (C. difficile ATCC 9689; Clostridioides difficile, ATCC9689, C. difficile ATCC 9689, Table 3, read-out: MIC alone) was 0.125 µg/mL. For the same compound, the Interpretation (C. difficile ATCC 9689; [14]) was “ADD (ΣFIC index >0.5 − 1.25 is considered additive (ADD))”, the “ΣFIC Index” value (C. difficile ATCC 9689; [14]) was 0.62 and the Interpretation (C. difficile ATCC 9689; [15]) was “ADD (ΣFIC index >0.5 − 1.25 is considered additive (ADD))”. The “ΣFIC Index” value (C. difficile ATCC 9689; [15]) was 0.625, the “MIC of DIHQ combined with metronidazole” value (C. difficile I6 [8]; C. difficile I6) was 0.125 µg/mL and the “MIC of DIHQ combined with vancomycin” value (C. difficile I6 [8]; C. difficile I6) was 0.5 µg/mL. For the same compound, the MIC alone (C. difficile I6 [8]; C. difficile I6, Table 4) was 2 µg/mL, the MIC (C. difficile I6 [8]; Clostridioides difficile, C. difficile I6, Table 3, read-out: MIC alone) was 2 µg/mL and the Interpretation (C. difficile I6 [8]; [16]) was “SYN (ΣFIC index ≤0.5 is considered synergistic (SYN))”. The “ΣFIC Index” value (C. difficile I6 [8]; [16]) was 0.188, the Interpretation (C. difficile I6 [8]; [17]) was “SYN (ΣFIC index ≤0.5 is considered synergistic (SYN))” and the “ΣFIC Index” value (C. difficile I6 [8]; [17]) was 0.375. For the same compound, the “MIC of DIHQ combined with metronidazole” value (C. difficile P11; C. difficile P11) was 0.125 µg/mL, the “MIC of DIHQ combined with vancomycin” value (C. difficile P11; C. difficile P11) was 0.5 µg/mL and the MIC alone (C. difficile P11; C. difficile P11, Table 4) was 0.5 µg/mL. For the same compound, the MIC (C. difficile P11; Clostridioides difficile, C. difficile P11, Table 3, read-out: MIC alone) was 0.5 µg/mL, the Interpretation (C. difficile P11; [18]) was “SYN (ΣFIC index ≤0.5 is considered synergistic (SYN))” and the “ΣFIC Index” value (C. difficile P11; [18]) was 0.37. The Interpretation (C. difficile P11; [19]) was “ADD (ΣFIC index >0.5 − 1.25 is considered additive (ADD))”, the “ΣFIC Index” value (C. difficile P11; [19]) was 1.125 and the “MIC of DIHQ combined with metronidazole” value (C. difficile P19; C. difficile P19) was 0.06 µg/mL. The “MIC of DIHQ combined with vancomycin” value (C. difficile P19; C. difficile P19) was 0.125 µg/mL, the MIC alone (C. difficile P19; C. difficile P19, Table 4) was 0.5 µg/mL and the MIC (C. difficile P19; Clostridioides difficile, C. difficile P19, Table 3, read-out: MIC alone) was 0.5 µg/mL. For the same compound, the Interpretation (C. difficile P19; [20]) was “SYN (ΣFIC index ≤0.5 is considered synergistic (SYN))”, the “ΣFIC Index” value (C. difficile P19; [20]) was 0.24 and the Interpretation (C. difficile P19; [21]) was “SYN (ΣFIC index ≤0.5 is considered synergistic (SYN))”. For the same compound, the “ΣFIC Index” value (C. difficile P19; [21]) was 0.375, the “MIC of DIHQ combined with metronidazole” value (C. difficile P30; C. difficile P30) was 0.06 µg/mL and the “MIC of DIHQ combined with vancomycin” value (C. difficile P30; C. difficile P30) was 0.125 µg/mL. The MIC alone (C. difficile P30; C. difficile P30, Table 4) was 1 µg/mL, the MIC (C. difficile P30; Clostridioides difficile, C. difficile P30, Table 3, read-out: MIC alone) was 1 µg/mL and the Interpretation (C. difficile P30; [22]) was “SYN (ΣFIC index ≤0.5 is considered synergistic (SYN))”. The “ΣFIC Index” value (C. difficile P30; [22]) was 0.185, the Interpretation (C. difficile P30; [23]) was “SYN (ΣFIC index ≤0.5 is considered synergistic (SYN))” and the “ΣFIC Index” value (C. difficile P30; [23]) was 0.25. The “inhibition of total toxin production” value (C. difficile ATCC 43255 [9]; C. difficile ATCC 43255, ¼×MIC) was about 8%, the “inhibition of total toxin production” value (C. difficile ATCC 43255 [9]; C. difficile ATCC 43255, ½×MIC) was about 28.5% and the “inhibition of total toxin production” value ([10]; C. difficile ATCC BAA-1870, ¼×MIC) was 17.8%. For the same compound, the “inhibition of total toxin production” value ([10]; C. difficile ATCC BAA-1870, ½×MIC) was 27%, the “inhibition of total toxin production” value (C. difficile NR-49277 [11]; C. difficile NR-49277, ¼×MIC) was about 31.8% and the “inhibition of total toxin production” value (C. difficile NR-49277 [11]; C. difficile NR-49277, ½×MIC) was about 38.9%.
